From ChEMBL document CHEMBL4028822, “Identification and structure activity relationship of novel flavone derivatives that inhibit the production of nitric oxide and PGE2 in LPS-induced RAW 264.7 cells” (Bioorg Med Chem Lett, 2017)

How the values were obtained:
RAW264.7 [1] = test: Antiinflammatory activity in mouse RAW264.7 cells assessed as inhibition of LPS-stimulated NO production by ELISA; format: functional, cell-based
RAW264.7 [2] = test: Antiinflammatory activity in mouse RAW264.7 cells assessed as inhibition of LPS-stimulated PGE2 production by ELISA; format: functional, cell-based
RAW264.7 [3] = test: Antiinflammatory activity in mouse RAW264.7 cells assessed as inhibition of LPS-stimulated NO production at 20 uM by ELISA relative to control; format: functional
[4] = Cytotoxicity against LPS-stimulated mouse RAW264.7 cells assessed as cell viability at 20 uM by MTT assay (reference value: 100.01 +/- 0.05 %); format: cell-based; settings: LPS-stimulated RAW264.7 cells, read-out: Activity
RAW264.7 [5] = test: Cytotoxicity against mouse RAW264.7 cells by MTT assay; format: cell-based
[6] = Cytotoxicity against LPS-stimulated mouse RAW264.7 cells assessed as cell viability at 5 uM by MTT assay (reference value: 100.01 +/- 0.05 %); format: cell-based; settings: LPS-stimulated RAW264.7 cells, read-out: Activity
RAW264.7 [7] = test: Antiinflammatory activity in mouse RAW264.7 cells assessed as inhibition of LPS-stimulated NO production at 5 uM by ELISA relative to control; format: functional
RAW264.7 [8] = test: Antiinflammatory activity in mouse RAW264.7 cells assessed as inhibition of LPS-stimulated NO production at 10 uM by ELISA relative to control; format: functional
[9] = Cytotoxicity against LPS-stimulated mouse RAW264.7 cells assessed as cell viability at 10 uM by MTT assay (reference value: 100.01 +/- 0.05 %); format: cell-based; settings: LPS-stimulated RAW264.7 cells, read-out: Activity

O=c1cc(-c2ccc(O)cc2)oc2ccccc12
IC50 (RAW264.7 [1]): 48.3 µM
IC50 (RAW264.7 [2]): 3.77 µM
inhibition at 20 µM (RAW264.7 [3]): 37.5%
viability at 20 µM [4]: 96.1%
IC50 (RAW264.7 [5]): 145 µM

O=c1cc(-c2ccc(Cl)cc2)oc2ccccc12
inhibition at 20 µM (RAW264.7 [3]): 5.07%
viability at 20 µM [4]: 85.8%

COc1ccc(-c2cc(=O)c3c(OC)cc(OC)cc3o2)cc1 [TRIMETHYLAPIGENIN]
inhibition at 20 µM (RAW264.7 [3]): 27.2%
viability at 20 µM [4]: 103%

O=c1cc(-c2ccc(F)cc2)oc2ccccc12
inhibition at 20 µM (RAW264.7 [3]): 21.2%
viability at 20 µM [4]: 92.4%

O=c1cc(-c2ccc(C(F)(F)F)cc2)oc2ccccc12
inhibition at 20 µM (RAW264.7 [3]): 10.7%
viability at 20 µM [4]: 87.9%

COc1ccc(-c2cc(=O)c3ccccc3o2)c(OC)c1
inhibition at 20 µM (RAW264.7 [3]): 20.9%
viability at 20 µM [4]: 107%

CC(C)(C)c1ccc(-c2cc(=O)c3ccccc3o2)cc1
inhibition at 20 µM (RAW264.7 [3]): 19.5%
viability at 20 µM [4]: 99.1%

Cc1ccc2oc(-c3ccccc3)cc(=O)c2c1 [6-METHYLFLAVONE]
inhibition at 20 µM (RAW264.7 [3]): 17.4%
viability at 20 µM [4]: 116%

O=c1cc(-c2ccc(-c3cccc4ccccc34)cc2)oc2ccccc12
inhibition at 20 µM (RAW264.7 [3]): 11.6%
viability at 20 µM [4]: 99.8%

COc1cc(OC)c2c(=O)cc(-c3ccc(OC)c(OC)c3)oc2c1 [TETRAMETHYLLUTEOLIN]
IC50 (RAW264.7 [1]): 32.5 µM
IC50 (RAW264.7 [2]): 3.13 µM
inhibition at 20 µM (RAW264.7 [3]): 37.6%
viability at 20 µM [4]: 109%
IC50 (RAW264.7 [5]): 73.9 µM

COc1cc(OC)c2c(=O)cc(-c3ccc(O)c(O)c3)oc2c1
IC50 (RAW264.7 [1]): 34.8 µM
IC50 (RAW264.7 [2]): 14 µM
IC50 (RAW264.7 [5]): > 200 µM

CS(=O)(=O)Nc1ccc([N+](=O)[O-])cc1OC1CCCCC1 [NS-398]
IC50 (RAW264.7 [2]): 6.74 µM

O=c1cc(-c2ccc(O)c(O)c2)oc2cc(O)cc(O)c12 [LUTEOLIN]
IC50 (RAW264.7 [1]): 5.06 µM
viability at 5 µM [6]: 98%
IC50 (RAW264.7 [2]): 2.87 µM
inhibition at 5 µM (RAW264.7 [7]): 19.5%
IC50 (RAW264.7 [5]): 18.9 µM

COc1ccc2oc(-c3ccccc3)cc(=O)c2c1 [6-METHOXYFLAVONE]
inhibition at 20 µM (RAW264.7 [3]): 22.2%
viability at 20 µM [4]: 116%

CC(C)Cc1ccc(C(C)C(=O)O)cc1 (centres undefined) [IBUPROFEN]
IC50 (RAW264.7 [1]): 1480 µM
IC50 (RAW264.7 [2]): 0.39 µM
IC50 (RAW264.7 [5]): 3310 µM

O=c1cc(-c2ccccc2)oc2cc3c(cc12)OCO3
inhibition at 20 µM (RAW264.7 [3]): 20.9%
viability at 20 µM [4]: 119%

O=c1cc(-c2ccccc2)oc2ccc(F)cc12
inhibition at 20 µM (RAW264.7 [3]): 20.4%
viability at 20 µM [4]: 75.2%

COc1ccc(-c2cc(=O)c3ccccc3o2)cc1 [4'-METHOXYFLAVONE]
inhibition at 20 µM (RAW264.7 [3]): 8.76%
viability at 20 µM [4]: 111%

O=c1cc(-c2ccccc2)oc2ccccc12 [FLAVONE]
inhibition at 20 µM (RAW264.7 [3]): 16.3%
viability at 20 µM [4]: 95.4%

CC(C)(C)C(=O)Oc1ccc2c(=O)cc(-c3ccccc3)oc2c1
inhibition at 20 µM (RAW264.7 [3]): 28.6%
viability at 20 µM [4]: 102%

O=c1cc(-c2cccc(O)c2)oc2ccccc12
inhibition at 20 µM (RAW264.7 [3]): 17.7%
viability at 20 µM [4]: 97%

COc1cccc(-c2cc(=O)c3ccccc3o2)c1
inhibition at 20 µM (RAW264.7 [3]): 15.7%
viability at 20 µM [4]: 102%

O=c1cc(-c2ccc(O)c(O)c2)oc2ccccc12
IC50 (RAW264.7 [1]): 6.29 µM
IC50 (RAW264.7 [2]): 0.99 µM
inhibition at 10 µM (RAW264.7 [8]): 64.3%
viability at 10 µM [9]: 93.6%
IC50 (RAW264.7 [5]): 45.1 µM

COc1ccc(-c2cc(=O)c3ccccc3o2)cc1OC [3',4'-DIMETHOXYFLAVONE]
IC50 (RAW264.7 [1]): 34.5 µM
IC50 (RAW264.7 [2]): 6.46 µM
inhibition at 20 µM (RAW264.7 [3]): 33.3%
viability at 20 µM [4]: 117%
IC50 (RAW264.7 [5]): 39.7 µM

O=c1cc(-c2ccccc2)oc2ccc(Cl)cc12 [6-CHLOROFLAVONE]
inhibition at 20 µM (RAW264.7 [3]): 26.1%
viability at 20 µM [4]: 91.4%

COc1ccc2c(=O)cc(-c3ccccc3)oc2c1 [7-METHOXYFLAVONE]
inhibition at 20 µM (RAW264.7 [3]): 17.7%
viability at 20 µM [4]: 133%

C[Si](C)(C)c1ccc(-c2cc(=O)c3ccccc3o2)cc1
inhibition at 20 µM (RAW264.7 [3]): 18%
viability at 20 µM [4]: 95%

O=c1cc(-c2ccc(-c3ccccc3)cc2)oc2ccccc12
inhibition at 20 µM (RAW264.7 [3]): 4.45%
viability at 20 µM [4]: 92.3%

O=c1cc(-c2ccccc2)oc2ccc([N+](=O)[O-])cc12
inhibition at 20 µM (RAW264.7 [3]): 11.9%
viability at 20 µM [4]: 90.8%

COc1cc(OC)c2c(=O)cc(-c3ccccc3)oc2c1 [CHRYSIN DIMETHYL ETHER]
IC50 (RAW264.7 [1]): 33.2 µM
IC50 (RAW264.7 [2]): 7.43 µM
inhibition at 20 µM (RAW264.7 [3]): 31.5%
viability at 20 µM [4]: 134%
IC50 (RAW264.7 [5]): 65.6 µM
